# Reference: patent US12643892B2, “Pyridazinone compounds for the treatment of neuromuscular diseases” (Edgewise Therapeutics, Inc., priority 2020, dated 2026)
# Molecular target: Skeletal Myofibril ATPase (Rabbit Psoas myofibrils)
# Assay: Skeletal Myofibril ATPase Assay
# Format: biochemical
# Conditions: PK/LDH-coupled NADH absorbance at 340 nm
# Experimental: Overview: Myosin ATPase activity was assessed by using a coupled reaction system, in which ADP generated by the myosin ATPase function was coupled to the disappearance of NADH through the pyruvate kinase/lactate dehydrogenase (PK-LDH) system. Myosin ATPase activity produces ADP, which was used as a substrate for PK to produce pyruvate and regenerate ATP. The pyruvate was then used as a substrate by LDH to oxidize NADH to NAD+. The rate of the reaction was monitored through the time-dependent disappearance of NADH using absorbance at 340 nm. Inhibition of ATPase activity by the assayed compounds was indicated by a reduced rate of NADH loss, relative to vehicle-treated controls, over the experimental time window. To assess the selectivity of the assayed compounds for skeletal myofibrils, the compounds were counter-screened in cardiac myofibrils.
# Materials: The following stock solutions and reagents were used in the Skeletal Myofibril ATPase Assay:
# Stock Solutions of pCa buffer. Combine PIPES, CaCl2, and EGTA solutions with 70 mL of water. Adjust pH to 7.0 and bring final volume to 100 mL.
# Buffer A & Buffer B. Buffers were stored on ice until use.
# Skeletal Myofibril ATPase Assay Procedure: BSA, ATP, NADH, PEP, and DTT solutions were thawed at room temperature, then transferred to ice. Pellet-frozen myofibrils (approximately twice the required volume) were transferred into a sufficiently large tube and capped. Myofibrils were thawed by rolling in a water bath for approximately 15 min at room temperature and cooled on ice. Buffers A and B were prepared by adjusting volumes as necessary for required number of wells and stored on ice. 0.5 μL of the compounds to be assayed were added into wells of a 384-well plate. Buffers A and B were mixed by inversion immediately prior to use, then 25 μL of each was dispensed using a Multidrop dispenser (Buffer A first, then Buffer B). The absorbance within the wells was measured at 340 nm, using a kinetic protocol in which the wells are read every 1.5-2 min for 1 h. The reaction rate was qualitatively assessed by subtracting the minimum absorbance value from the maximum value for each well, using either the SoftMax Pro plate reader software or a spreadsheet program such as Excel. Using GraphPad Prism 8.0, the data was normalized, with 100% activity defined as the absorbance change in the 1% DMSO vehicle wells and 0% assigned to no change in absorbance over the course of the experiment. The normalized data were fit to a variable-slope four-parameter logistic model, constraining the bottom to be 0 or greater. Compounds of Table 1 to 3 were tested and results of the assay appear in Table 4 herein. A=IC50 is less than or equal to 10 μM; B=IC50 is greater than 10 μM and less than 100 μM; C=IC50 is greater than 100 μM.
row,IC50 [µM],Structure (SMILES)
1,≤ 10,"Cc1cccc(-c2noc(-c3ccc(=O)n(Cc4ccc(C)nc4)c3)n2)c1 [Compound 96, 1-((6-methylpyridin-3-yl)methyl)-5-(3-(m-tolyl)-1,2,4-oxadiazol-5-yl)pyridin-2(1H)-one]"
2,≤ 10,"Cc1cncc(Cn2cc(-c3nc(-c4cccc(C)c4)no3)ccc2=O)c1 [Compound 95, 1-((5-methylpyridin-3-yl)methyl)-5-(3-(m-tolyl)-1,2,4-oxadiazol-5-yl)pyridin-2(1H)-one]"
3,10 to 100,"O=c1ccc(-c2nc(-c3ccccc3Cl)no2)cn1Cc1cccnc1 [Compound 110, 5-(3-(2-chlorophenyl)-1,2,4-oxadiazol-5-yl)-1-(pyridin-3-ylmethyl)pyridin-2(1H)-one]"
4,≤ 10,"O=c1ccc(-c2nc(-c3cccc(Cl)c3)no2)cn1Cc1cccnc1 [Compound 91, 5-(3-(3-chlorophenyl)-1,2,4-oxadiazol-5-yl)-1-(pyridin-3-ylmethyl)pyndin-2(1H)-one]"
5,≤ 10,"O=c1ccc(-c2nc(-c3cccc(Cl)c3)no2)cn1Cc1cncc(F)c1 [Compound 86, 5-(3-(3-chlorophenyl)-1,2,4-oxadiazol-5-yl)-1-((5-fluoropyridin-3-yl)methyl)pyridin-2(1H)-one]"
6,≤ 10,"Cc1cccc(-c2noc(-c3ccc(=O)n(Cc4cccnc4)c3)n2)c1 [Compound 84, 1-(pyridin-3-ylmethyl)-5-(3-(m-tolyl)-1,2,4-oxadiazol-5-yl)pyridin-2(1H)-one]"
7,> 120,"COc1ncccc1Cn1cc(-c2nc(-c3cccc(C)c3)no2)ccc1=O [Compound 121, 1-((2-methoxypyridin-3-yl)methyl)-5-(3-(m-tolyl)-1,2,4-oxadiazol-5-yl)pyridin-2(1H)-one]"
8,≤ 10,"O=c1ccc(-c2nc(-c3cncc(Cl)c3)no2)nn1Cc1cncc(F)c1 [Compound 65, 6-(3-(5-chloropyridin-3-yl)-1,2,4-oxadiazol-5-yl)-2-((5-fluoropyridin-3-yl)methyl)pyridazin-3(2H)-one]"
9,≤ 10,"Cc1cccc(-c2noc(-c3ccc(=O)n(Cc4cncnc4)c3)n2)c1 [Compound 105, 1-(pyrimidin-5-ylmethyl)-5-(3-(m-tolyl)-1,2,4-oxadiazol-5-yl)pyridin-2(1H)-one]"
10,10 to 100,"Cc1cccc(-c2noc(-c3ccc(=O)n(Cc4cccnc4)c3)n2)c1 [Compound 109, 1-(pyridin-3-ylmethyl)-5-(3-(m-tolyl)-1,2,4-oxadiazol-5-yl)pyridin-2(1H)-one]"
11,≤ 10,"O=c1ccc(-c2nc(-c3cncc(Cl)c3)no2)cn1Cc1cccnc1 [Compound 99, 5-(3-(5-chloropyridin-3-yl)-1,2,4-oxadiazol-5-yl)-1-(pyridin-3-ylmethyl)pyridin-2(1H)-one]"
12,> 120,"O=c1ccc(-c2nc(-c3ccsc3)no2)cn1Cc1ccccc1C(F)(F)F [Compound 115, 5-(3-(thiophen-3-yl)-1,2,4-oxadiazol-5-yl)-1-(2-(trifluoromethyl)benzyl)pyridin-2(1H)-one]"
13,> 120,"Cc1cccc(-c2noc(-c3ccc(=O)n(Cc4ccc(C(F)(F)F)nc4)c3)n2)c1 [Compound 114, 5-(3-(m-tolyl)-1,2,4-oxadiazol-5-yl)-l-((6-(trifluoromethyl)pyridin-3-yl)methyl)pyridin-2(1H)-one]"
14,> 120,"O=c1ccc(-c2nc(-c3cnccn3)no2)cn1Cc1ccccc1F [Compound 116, 1-(2-fluorobenzyl)-5-(3-(pyrazin-2-yl)-1,2,4-oxadiazol-5-yl)pyridin-2(1H)-one]"

# Continued, compound first:
row,Structure (SMILES),IC50 [µM]
1,"CCNC(=O)Cn1nc(-c2nc(-c3cccc(OC)c3)no2)ccc1=O [Compound 4, N-ethyl-2-(3-(3-(3-methoxyphenyl)-1,2,4-oxadiazol-5-yl)-6-oxopyridazin-1(6H)-yl)acetamide]",≤ 10
2,"O=c1ccc(-c2cccs2)nn1Cc1cccc(Cl)c1 [Compound 56, 2-(3-chlorobenzyl)-6-(thiophen-2-yl)pyridazin-3(2H)-one]",≤ 10
3,"Cn1cnc(-c2ccc(=O)n(CC(=O)NCc3ccccc3Cl)n2)c1 [Compound 55, N-(2-chlorobenzyl)-2-(3-(1-methyl-1H-imidazol-4-yl)-6-oxopyridazin-1(6H)-yl)acetamide]",> 100
4,"Cn1cc(-c2ccc(=O)n(CC(=O)NCc3ccccc3Cl)n2)cn1 [Compound 54, N-(2-chlorobenzyl)-2-(3-(1-methyl-1H-pyrazol-4-yl)-6-oxopyridazin-1(6H)-yl)acetamide]",10 to 100
5,"O=c1ccc(-c2cccs2)nn1C/C=C/c1ccccc1 [Compound 62, 2-cinnamyl-6-(thiophen-2-yl)pyridazin-3(2H)-one]",> 100
6,"O=C(Cn1nc(-c2nnc(-c3cccc(Cl)c3)s2)ccc1=O)NC1CCC1 [Compound 23, 2-(3-(5-(3-chlorophenyl)-1,3,4-thiadiazol-2-yl)-6-oxopyridazin-1(6H)-yl)-N-cyclobutylacetamide]",≤ 10
7,"Cc1ccc(-c2ccc(=O)n(CC(=O)N[C@](C)(C#N)C(C)C)n2)s1 [Compound 36, (S)-N-(2-cyano-3-methylbutan-2-yl)-2-(3-(5-methylthiophen-2-yl)-6-oxopyridazin-1(6H)-yl)acetamide]",10 to 100
8,"CCNC(=O)Cn1nc(-c2nc(-c3cncc(Cl)c3)no2)ccc1=O [Compound 12, 2-(3-(3-(5-chloropyridin-3-yl)-1,2,4-oxadiazol-5-yl)-6-oxopyridazin-1(6H)-yl)-N-ethylacetamide]",≤ 10
9,"COc1ccc(NC(=O)Cn2nc(-c3ccco3)ccc2=O)c(OC)c1 [Compound 52, N-(2,4-dimethoxyphenyl)-2-(3-(furan-2-yl)-6-oxopyridazin-1(6H)-yl)acetamide]",10 to 100
10,"O=c1ccc(-c2cccs2)nn1Cc1ccccc1F [Compound 58, 2-(2-fluorobenzyl)-6-(thiophen-2-yl)pyridazin-3(2H)-one]",> 100
11,"CCNC(=O)Cn1nc(-c2nc(-c3cc(Cl)ccc3F)no2)ccc1=O [Compound 1, 2-(3-(3-(5-chloro-2-fluorophenyl)-1,2,4-oxadiazol-5-yl)-6-oxopyridazin-1(6H)-yl)-N-ethylacetamide]",≤ 10
12,"CCNC(=O)Cn1nc(-c2nc(-c3cccc(Cl)c3F)no2)ccc1=O [Compound 3, 2-(3-(3-(3-chloro-2-fluoropheny)-1,2,4-oxadiazol-5-yl)-6-oxopyridazin-1(6H)-yl)-N-ethylacetamide]",≤ 10
13,"CCNC(=O)Cn1nc(-c2nc(-c3cncc(C(F)(F)F)c3)no2)ccc1=O [Compound 10, N-ethyl-2-(6-oxo-3-(3-(5-(trifluoromethyl)pyridin-3-yl)-1,2,4-oxadiazol-5-yl)pyridazin-1(6H)-yl)acetamide]",≤ 10
14,"CCNC(=O)Cn1nc(-c2nc(-c3cccc(F)c3)no2)ccc1=O [Compound 2, N-ethyl-2-(3-(3-(3-fluorophenyl)-1,2,4-oxadiazol-5-yl)-6-oxopyridazin-1(6H)-yl)acetamide]",≤ 10
15,"Cc1ccc(-c2ccc(=O)n(CC(=O)NC(C)C)n2)s1 [Compound 33, N-isopropyl-2-(3-(5-methylthiophen-2-yl)-6-oxopyridazin-1(6H)-yl)acetamide]",≤ 10
16,"Cc1ccc(-c2ccc(=O)n(CCOc3cccc(C#N)c3)n2)s1 [Compound 61, 3-(2-(3-(5-methylthiophen-2-yl)-6-oxopyridazin-1(6H)-yl)ethoxy)benzonitrile]",> 100
17,"O=C(Cn1nc(-c2nc(-c3cccc(Cl)c3)no2)ccc1=O)NC1CCC1 [Compound 5, 2-(3-(3-(3-chlorophenyl)-1,2,4-oxadiazol-5-yl)-6-oxopyridazin-1(6H)-yl)-N-cyclobutylacetamide]",≤ 10
18,"O=C(Cn1nc(-c2cccs2)ccc1=O)Nc1ccc2c(c1)OCO2 [Compound 47, N-(benzo[d][1,3]dioxol-5-yl)-2-(6-oxo-3-(thiophen-2-yl)pyridazin-1(6H)-yl)acetamide]",> 100
19,"CCCCn1nc(-c2nc(-c3ccc(F)cc3)no2)ccc1=O [Compound 76, 2-butyl-6-(3-(4-fluorophenyl)-1,2,4-oxadiazol-5-yl)pyridazin-3(2H)-one]",≤ 10
20,"COCCn1nc(-c2nc(-c3ccc(F)c(F)c3)no2)ccc1=O [Compound 75, 6-(3-(3,4-difluorophenyl)-1,2,4-oxadiazol-5-yl)-2-(2-methoxyethyl)pyridazin-3(2H)-one]",10 to 100
21,"O=c1ccc(-n2cncn2)nn1Cc1cccc(Cl)c1 [Compound 78, 2-(3-chlorobenzyl)-6-(1H-1,2,4-triazol-1-yl)pyridazin-3(2H)-one]",10 to 100
